The source of these data is patent US9718804B2, “GSK-3 inhibitors” (BRISTOL-MYERS SQUIBB COMPANY, priority 2013, dated 2017).

The target of test [1] is GSK3α (Homo sapiens, UniProt P49840). The test is described as follows: GSK3α kinase assay (Caliper LabChip, fluoresceinated peptide substrate). The format is biochemical. The method, then: (§1) The kinase assay was performed in V-bottom 384-well plates. […] The reaction was incubated at room temperature for 20 hours and terminated by adding 45 μl of 35 mM EDTA to each sample. The reaction mixture was analyzed on the Caliper LabChip3000 (Caliper, Hopkinton, Mass.) by electrophoretic separation of the unphosphorylated substrate and phosphorylated product. […] Compounds were dissolved at 10 mM in dimethylsulfoxide (DMSO) and evaluated at eleven concentrations. IC50 values were derived by non-linear regression analysis.
GSK3α, sequence (P49840 whole entry, species assumed): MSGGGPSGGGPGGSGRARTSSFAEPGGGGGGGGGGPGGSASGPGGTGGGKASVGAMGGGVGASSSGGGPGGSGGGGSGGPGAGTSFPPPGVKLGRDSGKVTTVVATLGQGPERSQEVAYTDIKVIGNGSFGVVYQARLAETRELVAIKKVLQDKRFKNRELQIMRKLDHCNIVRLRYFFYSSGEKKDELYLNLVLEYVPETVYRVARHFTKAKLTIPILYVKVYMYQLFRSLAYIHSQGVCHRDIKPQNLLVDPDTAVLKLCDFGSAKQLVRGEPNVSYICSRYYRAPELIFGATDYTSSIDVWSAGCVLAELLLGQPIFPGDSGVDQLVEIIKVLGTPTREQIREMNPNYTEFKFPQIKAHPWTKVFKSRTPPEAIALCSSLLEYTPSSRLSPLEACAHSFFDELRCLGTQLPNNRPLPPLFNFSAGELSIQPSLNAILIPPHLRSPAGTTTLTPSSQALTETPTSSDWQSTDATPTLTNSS

Test [2] has as its target GSK3β (Homo sapiens, UniProt P49841). Kind of test: GSK3β kinase assay (Caliper LabChip, fluoresceinated peptide substrate). The format is biochemical. Particulars: first value of the cell; 250 pM enzyme, 20 uM ATP, 20 hours at room temperature; read-out: GSK3β/α (nM): GSK3β IC50. The method, then: as §1
The subject of test [3] is pTau. The test is described as follows: pTau assay (no method described). Format: cell-based.

GSK3β, sequence (P49841 whole entry, species assumed): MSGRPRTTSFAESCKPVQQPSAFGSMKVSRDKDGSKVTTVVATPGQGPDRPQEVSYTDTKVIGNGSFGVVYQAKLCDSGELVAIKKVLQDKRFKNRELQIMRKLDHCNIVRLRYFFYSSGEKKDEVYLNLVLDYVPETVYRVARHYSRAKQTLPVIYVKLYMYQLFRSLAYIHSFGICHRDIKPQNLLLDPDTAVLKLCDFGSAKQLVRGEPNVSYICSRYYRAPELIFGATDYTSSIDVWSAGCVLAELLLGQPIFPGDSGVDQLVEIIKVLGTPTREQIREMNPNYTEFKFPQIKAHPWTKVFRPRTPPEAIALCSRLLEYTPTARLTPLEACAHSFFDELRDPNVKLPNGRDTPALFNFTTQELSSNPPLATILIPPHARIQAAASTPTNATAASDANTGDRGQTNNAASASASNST

For the compound `O=C(Nc1cnccc1OCCN1CCCC1)c1ccnc(Nc2ccc(C(F)(F)F)cn2)c1` [Example 46, N-(4-(2-(Pyrrolidin-1-yl)ethoxy)pyridin-3-yl)-2-((5-(trifluoromethyl)pyridin-2-yl)amino)isonicotinamide], the IC50 in test [1] worked out at 75 nM; in test [2], 150 nM; in test [3] it was 4300 nM.
For `O=C(Nc1cnccc1OCCN1CCOCC1)c1ccnc(Nc2ccc(C(F)(F)F)cn2)c1` [Example 47, N-(4-(2-Morpholinoethoxy)pyridin-3-yl)-2-((5-(trifluoromethyl)pyridin-2-yl)amino)isonicotinamide] the same measures were 5.6 nM, 18 nM and 420 nM.
Taken in the same sequence, the figures for `O=C(Nc1cnccc1-c1ccc(F)cc1)c1ccnc(Nc2cccc(Cl)n2)c1` [Example 48, 2-((6-Chloropyridin-2-yl)amino)-N-(4-(4-fluorophenyl)pyridin-3-yl)isonicotinamide] were 1.9 nM, 2.9 nM and 270 nM.
Taken in the same sequence, the figures for `O=C(Nc1cnccc1-c1ccccc1F)c1ccnc(Nc2ccc(C(F)(F)F)cn2)c1` [Example 49, N-(4-(2-Fluorophenyl)pyridin-3-yl)-2-((5-(trifluoromethyl)pyridin-2-yl)amino)isonicotinamide] were 0.32 nM, 0.65 nM and 53 nM.
For the compound `O=C(Nc1cnccc1-c1ccc(F)cc1)c1ccnc(Nc2ccc(C(F)(F)F)cn2)c1` [Example 50, N-(4-(4-Fluorophenyl)pyridin-3-yl)-2-((5-(trifluoromethyl)pyridin-2-yl)amino)isonicotinamide], the IC50 in test [1] turned out to be 0.86 nM; in test [2] it was 2.1 nM; in test [3], 54 nM.
`O=C(Nc1cnccc1-c1ccc(Cl)cc1)c1ccnc(Nc2ccc(C(F)(F)F)cn2)c1` [Example 51, N-(4-(4-Cholorophenyl)pyridin-3-yl)-2-((5-(trifluoromethyl)pyridin-2-yl)amino)isonicotinamide]: the IC50 in test [1] stood at 6.9 nM; in test [2], 9.9 nM; in test [3], 266 nM.
For `N#Cc1ccc(-c2ccncc2NC(=O)c2ccnc(Nc3ccc(C(F)(F)F)cn3)c2)c(F)c1` [Example 52, N-(4-(2-Fluoro-4-cyano-phenyl)pyridin-3-yl)-2-((5-(trifluoromethyl)pyridin-2-yl)amino)isonicotinamide] the same measures were 1.5 nM, 3.6 nM and 35 nM.
For `O=C(Nc1cnccc1-c1ccc(F)cc1C(F)(F)F)c1ccnc(Nc2ccc(C(F)(F)F)cn2)c1` [Example 53, N-(4-(2-Trifluoromethyl-4-fluoro-phenyl)pyridin-3-yl)-2-((5-(trifluoromethyl)pyridin-2-yl)amino)isonicotinamide] the same measures were 0.57 nM, 0.51 nM and 8.3 nM.
For `O=C(Nc1cnccc1-c1ccc(F)cc1F)c1ccnc(Nc2ccc(C(F)(F)F)cn2)c1` [Example 54, N-(4-(2,4-Difluoro-phenyl)pyridin-3-yl)-2-((5-(trifluoromethyl)pyridin-2-yl)amino)isonicotinamide] the same measures were 0.96 nM, 2.8 nM and 57 nM.
As for `COc1ccc(-c2ccncc2NC(=O)c2ccnc(Nc3ccc(C(F)(F)F)cn3)c2)c(F)c1` [Example 55, N-(4-(2-Fluoro-4-methoxy-phenyl)pyridin-3-yl)-2-((5-(trifluoromethyl)pyridin-2-yl)amino)isonicotinamide], the IC50 turned out to be 0.89 nM in test [1], 3.2 nM in test [2] and 86 nM in test [3].
Take `N#Cc1ccc(Nc2cc(C(=O)Nc3cnccc3-c3ccc(F)cc3)ccn2)nc1` [Example 56, 2-((5-Cyanopyridin-2-yl)amino)-N-(4-(4-fluorophenyl)pyridin-3-yl)isonicotinamide]: the IC50 amounted to 0.98 nM in test [1], 2.4 nM in test [2] and 36 nM in test [3].
Taken in the same sequence, the figures for `N#Cc1ccc(Nc2cc(C(=O)Nc3cnccc3-c3ccc(F)cc3F)ccn2)nc1` [Example 57, 2-((5-Cyanopyridin-2-yl)amino)-N-(4-(2,4-difluorophenyl)pyridin-3-yl)isonicotinamide] were 0.59 nM, 1.3 nM and 19 nM.
Taken in the same sequence, the figures for `O=C(Nc1cnccc1-c1ccc(F)cc1)c1ccnc(Nc2ccc(Cl)cn2)c1` [Example 58, 2-((5-Chloropyridin-2-yl)amino)-N-(4-(4-fluorophenyl)pyridin-3-yl)isonicotinamide] were 0.36 nM, 0.86 nM and 57 nM.
For `O=C(Nc1cnccc1-c1ccccc1)c1ccnc(Nc2ccc(Cl)cn2)c1` [Example 59, 2-((5-Chloropyridin-2-yl)amino)-N-(4-phenylpyridin-3-yl)isonicotinamide] the same measures were 0.39 nM, 0.9 nM and 45 nM.
Consider `O=C(Nc1cnccc1-c1ccc(Cl)cc1)c1ccnc(Nc2ccc(Cl)cn2)c1` [Example 60, N-(4-(4-Chlorophenyl)pyridin-3-yl)-2-((5-chloropyridin-2-yl)amino)isonicotinamide], for which the IC50 was found to be 1.2 nM in test [1], 2.7 nM in test [2] and 270 nM in test [3].
Taken in the same sequence, the figures for `CC(C)(C#N)c1ccc(Nc2cc(C(=O)Nc3cnccc3-c3ccccc3)ccn2)nc1` [Example 61, 2-((5-(2-Cyanopropan-2-yl)pyridin-2-yl)amino)-N-(4-phenylpyridin-3-yl)isonicotinamide] were 0.54 nM, 1.5 nM and 150 nM.
For `N#CC1(c2ccc(Nc3cc(C(=O)Nc4cnccc4-c4ccccc4)ccn3)nc2)CC1` [Example 62, 2-((5-(1-Cyanocyclopropyl)pyridin-2-yl)amino)-N-(4-phenylpyridin-3-yl)isonicotinamide] the same measures were 0.29 nM, 0.62 nM and 37 nM.
Take `O=C(Nc1cnccc1-c1ccccc1)c1ccnc(Nc2ccc(Br)cn2)c1` [Example 63, 2-((5-Bromopyridin-2-yl)amino)-N-(4-phenylpyridin-3-yl)isonicotinamide]: the IC50 in test [1] came to 3.4 nM; in test [2] it was 9.3 nM; in test [3], 150 nM.
For `O=C(Nc1cncc2ccccc12)c1ccnc(Nc2ccc(C(F)(F)F)cn2)c1` [Example 64, N-(Isoquinolin-4-yl)-2-((5-(trifluoromethyl)pyridin-2-yl)amino)isonicotinamide] the same measures were 3.1 nM, 10 nM and 610 nM.
Turning to `N#Cc1ccc(Nc2cc(C(=O)Nc3cncc4ccccc34)ccn2)nc1` [Example 65, 2-((5-Cyanopyridin-2-yl)amino)-N-(isoquinolin-4-yl)isonicotinamide], the IC50 in test [1] turned out to be 3.2 nM; in test [2], 8.5 nM; in test [3], 420 nM.
For `O=C(Nc1cnc(Cl)cc1-c1ccccc1)c1ccnc(Nc2ccc(C(F)(F)F)cn2)c1` [Example 66, N-(6-Chloro-4-phenylpyridin-3-yl)-2-((5-(trifluoromethyl)pyridin-2-yl)amino)isonicotinamide] the same measures were 29 nM, 61 nM and 5850 nM.
As to `O=C(Nc1cnc(F)cc1-c1ccccc1)c1ccnc(Nc2ccc(C(F)(F)F)cn2)c1` [Example 67, N-(6-Fluoro-4-phenylpyridin-3-yl)-2-((5-(trifluoromethyl)pyridin-2-yl)amino)isonicotinamide], the IC50 in test [1] was determined as 4 nM; in test [2] it was 7 nM; in test [3], 524 nM.
Taken in the same sequence, the figures for `Cc1cc(-c2ccccc2)c(NC(=O)c2ccnc(Nc3ccc(C(F)(F)F)cn3)c2)cn1` [Example 68, N-(6-Methyl-4-phenylpyridin-3-yl)-2-((5-(trifluoromethyl)pyridin-2-yl)amino)isonicotinamide] were 5.7 nM, 12 nM and 1010 nM.
As to `O=C(Nc1cnc(Cl)cc1N1CCC(F)(F)CC1)c1ccnc(Nc2ccc(C(F)(F)F)cn2)c1` [Example 70, N-(6-Chloro-4-(4,4-difluoropiperidin-1-yl)pyridin-3-yl)-2-((5-(trifluoromethyl)pyridin-2-yl)amino)isonicotinamide], the IC50 in test [1] was found to be 2.6 nM; in test [2] it was 7.6 nM; in test [3] it was 564 nM.
Taken in the same sequence, the figures for `O=C(Nc1cnc(F)cc1N1CCC(F)(F)CC1)c1ccnc(Nc2ccc(C(F)(F)F)cn2)c1` [Example 71, N-(6-Fluoro-4-(4,4-difluoropiperidin-1-yl)pyridin-3-yl)-2-((5-(trifluoromethyl)pyridin-2-yl)amino)isonicotinamide] were 0.36 nM, 1.3 nM and 60 nM.
On to `Cc1cc(N2CCC(F)(F)CC2)c(NC(=O)c2ccnc(Nc3ccc(C(F)(F)F)cn3)c2)cn1` [Example 72, N-(6-Methyl-4-(4,4-difluoropiperidin-1-yl)pyridin-3-yl)-2-((5-(trifluoromethyl)pyridin-2-yl)amino)isonicotinamide], for which the IC50 in test [1] came to 0.76 nM; in test [2], 3.5 nM; in test [3], 120 nM.
For `O=C(Nc1cnc(F)cc1N1CCOCC1)c1ccnc(Nc2ccc(C(F)(F)F)cn2)c1` [Example 73, N-(6-Fluoro-4-morpholinopyridin-3-yl)-2-((5-(trifluoromethyl)pyridin-2-yl)amino)isonicotinamide] the same measures were 0.6 nM, 1 nM and 43 nM.
